Measured values from patent publication US20230303504A1, “CRYSTALLINE SALTS OF TIZOXANIDE AND 2-HYDROXY-N-(5-CHLORO-1,3-THIAZOL-2-YL)BENZAMIDE (RM-4848) WITH ETHANOLAMINE, MORPHOLINE, PROPANOLAMINE, PIPERAZINE AND N-METHYLPIPERAZINE” (priority 2020, published 2023).
Counter-ions that a name gives are not always drawn.

Legend:
[1] = physchem; assay type: physicochemical
Description: The appropriate amine is heated with an equimolar amount of either tizoxanide or RM4848 in methanol until a clear solution is obtained. Any small amounts of undissolved solid are removed by filtration. On cooling, the desired salt may crystallize immediately; addition of an equal volume of a solvent, such as diethyl ether (for the tizoxanide salts) or concentration to a small volume, then addition of excess ether (for salts of RM4848), may be used to obtain solid products. In general the salts of RM4848 are more soluble under the above conditions. All the salts are more soluble in water than the parent thiazolides.
The resulting slurry was filtered without issues; the filtration went easy on a glass sintered funnel. The cake was washed with water (3×2 Veq) and methanol (3×2 Veq). Combining the neutralization step and aqueous washings provide that no HCl remains in the cake. Avoiding residual HCl in the product may be important because it could react with ethanolamine during step 2. Washing the cake with methanol allows for the removal of water. […] This way no Tizoxanide is lost during the washing of the cake; nevertheless, the remaining NTZA is not removed either.
RM5071 is not soluble in ethyl acetate, but it tends to form a sticky material. This was also observed during a test reaction in pure ethyl acetate. In addition, it was observed that RM5071 is almost soluble in methanol at a concentration of 5 mg/mL.

[2] = Bioavailability pharmacokinetic study, single oral gavage dose in rats; assay type: in vivo, Sprague-Dawley rats; details: for maximum concentrations (Cmax) of T (medians): both, Sprague-Dawley
Procedure: A study was conducted to evaluate the bioavailability of tizoxanide (T) and tizoxanide glucuronide (TG) in plasma following oral administration of a single dose of 90 mg/kg RM-5071, RM-5072 and nitazoxanide by oral gavage to four male and four female Sprague-Dawley rats. Plasma samples were collected at 0.083, 0.167, 0.25, 0.5 1, 2, 6, 12 and 24-hours post-dose. Concentrations of T and TG were determined using mass spectrometry. […] These compounds are rapidly absorbed achieving Cmax within 5 minutes after an oral dose.
Animals and treatment. Three groups of four male and four female Sprague-Dawley rats were administered RM-5071, RM-5072 or NTZ as a single oral gavage dose as detailed in the table below:
Nine serial blood samples were obtained from each animal at 0.083, 0.167, 0.25, 0.5 1, 2, 6, 12 and 24-hours post-dose. Derived plasma samples were stored in sodium heparinized tubes at −70° C. or lower until they were shipped on dry ice via overnight courier for analysis of T and TG concentrations by mass spectrometry.
Because some animals glucurono-conjugate T faster than others, the extent, rate and variability of absorption of these three compounds using the sum of free and glucurono-conjugated T concentrations at each timepoint were evaluated. To arrive at the concentrations of glucurono-conjugated T, TG concentrations were multiplied by 61% (molecular weight of T=270 divided by molecular weight of TG=441).

[3] = in vivo; cited from earlier work
[4] = physchem; assay type: physicochemical; details: for solubility: thermodynamic from solid
Procedure: The apparent solubility of RM-5071 was tested using several solvents, specifically: DMF, DMSO, acetonitrile (ACN), water, ACN/water mixture, methanol, isopropanol, and ethanol. United States Pharmacopeia (USP) classify the solubility regardless of the solvent used, just following defined criteria summarized in Table 10. The solute was initially dissolved in each of the solvents or solvent system at a lmg/mL concentration. If solute remained undissolved, a fresh solution of lower concentration was subsequently prepared until the solid was observed completely dissolved. This concentration limit was estimated as the apparent solubility.
The solutions of RM-5071 were prepared, dissolving 10 mg in increasing solvent volumes ranging from 10 mL, 100 mL, to 1000 mL in each of the solvents. According to the visual inspection and observations the apparent solubility of RM-5071 was classified according the 10, as defined by the USP.
The solubility studies of RM-5071 were performed in several solvents as specified on Table 11 at room temperature. For the purpose of this chemical characterization report, the terms specified on Table 10 were used to describe the solubility of RM 5071 in different solvents on Table 12

[5] = physchem; assay type: physicochemical; remark: listed apart in the source
Procedure: The acid titration was performed by adding 20 mL of a 1 mg/mL RM-5071 solution poured onto a beaker (titrate), the pH of the solution was measured while using a solution of 0.01N HCl as the titrant. The alkaline titration was performed by adding 20 mL of a 1 mg/mL RM-5071 solution were poured onto a beaker, the pH of the solution was measured while adding a solution 0.02 N NaOH as the titrant. The solutions had agitation with a magnetic stirrer during titration and it was stopped during pH measurements.
The inflection point was calculated using the second derivative of the experimental curve, the volume for the equivalence point is 5.83 mL of 0.01 N HCl, at a pH =5.99. […] The pKa of a phenolic proton is 9.9 as per Vollhardt, K. P. C.; Schore, N. E., Organic Chemistry; Palgrave Version: Structure and Function. Macmillan International Higher Education: 2014.

[6] = Thermogravimetric analysis (TGA); assay type: physicochemical
Description: Thermogravimetric analysis (TGA) is an analytical technique used to determine the thermal stability of a material and its fraction of volatile components by monitoring the weight change that occurs as a substance is heated. As many weight loss curves look similar, the curves may require transformation before results may be interpreted. A derivative weight loss curve can be used to tell the point at which weight loss is most apparent. The analysis is normally carried out in air or in an inert atmosphere such as nitrogen.
For the TGA analysis, amounts between 2.0 to 2.6 mg of both RM-5071 and desacetyl-NTZA samples were placed individually in platinum pans. The temperature method was: step 1: equilibrate at 25° C., step 2: heat from 25° C. to 700° C. at 10.00° C./min, step 3: hold for 5 min at 700° C. The analyses were carried out under nitrogen.

[7] = Differential scanning calorimetry (DSC); assay type: physicochemical; details: 10 °C/min under nitrogen; irreversible for RM-5071
Procedure: Differential scanning calorimetry (DSC) is a thermo-analytical technique in which the difference in the amount of heat required to increase the temperature of a sample versus a reference are measured as a function of temperature. The reference sample should have a well-defined heat capacity over the range of temperatures to be scanned. One application of DSC is studying phase transitions, such as melting, glass transitions, and/or exothermic decompositions. Such measurements provide qualitative and quantitative information about physical and chemical changes of a molecule.
The calorimetric analysis was performed by the MCC. For the DSC analysis, amounts between 2.34 to 2.46 mg of the samples RM-5071 and desacetyl-NTZA were placed individually in aluminum hermetic pans and covered with an aluminum lid. The temperature method was: step 1: hold for 10 min at 25° C., and step 2: heat from 25° C. to 400 at 10.00 ° C./min. An additional DSC experiment was performed to determine further crystallinity behavior by performing a heat-cool-heat cycling experiment to RM-5071. Approximately 1.69 mg of the RM-5071sample was placed in an aluminum hermetic pan and covered with an aluminum lid. […]

[8] = XRD temperature test (oven heating, then XRD); assay type: physicochemical
Procedure: A temperature test was performed in order to determine if any physical and crystallinity changes occurred to the sample RM-5071 upon heating.In order to assess if any change occurred two set of experiments were performed as follows: Experiment A- Two petri dishes were identified as “Fast” and “Slow”. To each petri dish, approximately 2 spatulas of sample RM-5071 were added. Then, the oven was turned on and set to a temperature of-160-165° C. After reaching the temperature, the petri dishes were placed in the oven for 15 minutes. Once the time was completed, the oven was turned off and the “Fast” sample was removed and left to reach room temperature (RT) in the hood. The “Slow” sample was left in the oven to reach RT in a slower manner. The “Slow” sample was removed from the oven, once it reached RT. The samples were analyzed by XRD. Experiment B- The procedure described above was followed at a temperature range of ˜110-120° C. After reaching the temperature, the petri dishes were placed in the oven during 10 minutes. The removal of samples from the oven was followed as previosly described. Afterwards, the samples were analyzed by XRD.

[9] = single 90 mg/kg oral gavage, 4 male and 4 female rats per group
[10] = single 90 mg/kg oral gavage, rats

For O=C(Nc1ncc([N+](=O)[O-])s1)c1ccccc1O [Desacetyl-NTZA, 2-Hydroxybenzoyl-N-[(5-nitro)thiazol-2-yl]amide], the solubility in methanol [1] was “fairly insoluble” and the solubility in water [1] was “fairly insoluble”.
For CC(=O)Oc1ccccc1C(=O)Nc1ncc([N+](=O)[O-])s1 [NTZ, 2-(acetolyloxy)-N-(5-nitro-2-thiazolyl) benzamide, reference compound], the “maximum concentrations (Cmax) of T (medians)” value (“maximum concentrations (Cmax)” below) ([2]; rat, in vivo, po, 90 mg/kg) was 1700 ng/mL, the adverse clinical signs ([2]; rat, in vivo, po, 90 mg/kg) was “No adverse clinical signs were observed” and the “time at which Cmax of T was achieved” value ([2]; rat, in vivo, po, 90 mg/kg) was 2 h. The solubility in methanol [1] was “fairly insoluble”, the solubility in water [1] was “fairly insoluble” and the plasma half-life [3] was 1.3 h.
In the case of O=C(Nc1ncc([N+](=O)[O-])s1)c1ccccc1O [RM-5071, 2-Hydroxybenzoyl-N-[(5-Nitro)Thiazol-2-yl]Amide, Ethanolamine Salt], the “maximum concentrations (Cmax)” value ([2]; rat, in vivo, po, 90 mg/kg) is reported as 4700 ng/mL, the “bioavailability in terms of the maximum concentration compared to NTZA” value ([2]; rat, in vivo) is reported as “more bioavailable” and the “mean AUC0-12h relative to NTZ” value ([2]; rat, in vivo) is reported as “roughly the same”. The “mean AUC0-12h relative to RM-5072” value ([2]; rat, in vivo) was “almost double”, the adverse clinical signs [2, 9] was “No adverse clinical signs were observed” and the “plasma concentrations of T and TG (free and glucurono-conjugated T) compared to RM-5072 or NTZ” value [2, 10] was “higher”. For the same compound, the “speed of availability of T in plasma compared to NTZ” value [2, 10] was “dramatically improve”, the “variability of absorption compared to RM-5072 or NTZ” value [2, 10] was “less variability” and the Apparent solubility [4] was “very soluble”. For the same compound, the solubility ([4]; aqueous with cosolvent or surfactant or cyclodextrin, Apparent Solubility of RM-5071) was over 1000 µg/mL, the solubility ([4]; aqueous with cosolvent or surfactant or cyclodextrin, Apparent Solubility of RM-5071 (concentration limit)) was over 1000 µg/mL and the solubility ([4]; organic solvent or mixture, Apparent Solubility of RM-5071 (concentration limit)) was 33 µg/mL. For the same compound, the solubility ([4]; water, Apparent Solubility of RM-5071 (concentration limit)) was under 5 µg/mL, the “solubility in ethyl acetate” value [1] was “not soluble” and the solubility ([1]; organic solvent or mixture) was about 5000 µg/mL. The pKa [5] was 8.8, the pH of solution ([5]; 1 mg/mL RM-5071 solution, initial) was 9.44 and the “pH at which full dissolution of the solid is achieved” value ([5]; 1 mg/mL, titration with NaOH) was 10.63. The “First step Temperature (° C.)” value ([6]; 10 °C/min under nitrogen) was 85-160 °C, the “Second step Temperature(° C.)” value ([6]; 10 °C/min under nitrogen) was 160-254 °C and the “Second step Weight loss (%)” value ([6]; 10 °C/min under nitrogen) was 30.93%. For the same compound, the “Third step Temperature(° C.)” value ([6]; 10 °C/min under nitrogen) was 254-700 °C, the “Third step Weight loss (%)” value ([6]; 10 °C/min under nitrogen) was 26.62% and the total weight loss ([6]; 25 to 700 °C under nitrogen) was 77%. For the same compound, the “DSC peak transition temperature (exothermic; solid stable up to)” value [7] was 163 °C, the “physical and crystallinity changes upon heating” value ([8]; Experiment A: 160-165° C., 15 minutes) was “changed from bright yellow to a black powder with beige portions” and the “physical and crystallinity changes upon heating” value ([8]; Experiment B: 110-120° C., 10 minutes) was “does not change significantly”.
In the case of O=C(Nc1ncc([N+](=O)[O-])s1)c1ccccc1O [RM-5072, 2-Hydroxybenzoyl-N-[(5-Nitro)Thiazol-2-yl]Amide, Morpholine Salt], the “maximum concentrations (Cmax)” value ([2]; rat, in vivo, po, 90 mg/kg) is reported as 3100 ng/mL, the adverse clinical signs [2, 9] is reported as “No adverse clinical signs were observed” and the “speed of availability of T in plasma compared to NTZ” value [2, 10] is reported as “dramatically improve”.
